Read-outs that look alike come from different tables or passages of the source.
Key:
[1] = test system: EBOV; conditions: at 1000 μM; cited from earlier work
[2] = test system: hPIV3-GFP; experiment: microbe, parasite or virus in culture; assay type: cell-based, human parainfluenza virus 3
[3] = test system: rMV^EZEGFP(3); assay type: cell-based, Measles virus
[4] = test system: rgRSV224; experiment: microbe, parasite or virus in culture; assay type: cell-based, respiratory syncytial virus
[5] = test system: recombinant EBOV (Mayinga variant); assay type: cell-based, Ebola virus
[6] = test system: EBOV-ZsG; experiment: microbe, parasite or virus in culture; assay type: cell-based, Ebola virus
[7] = test system: EBOV (Makona variant); assay type: cell-based, Ebola virus
[8] = test system: SUDV (Gulu variant); assay type: cell-based
[9] = test system: SUDV (Gulu variant); assay type: cell-based; remark: listed apart in the source
[10] = test system: RVFV-GFP, ZH501; experiment: microbe, parasite or virus in culture; assay type: cell-based, Rift Valley Fever virus
[11] = test system: NiV-GFP2AM; experiment: microbe, parasite or virus in culture; assay type: cell-based, Nipah virus
[12] = test system: NiV-GFP2AM; experiment: microbe, parasite or virus in culture; assay type: cell-based, Nipah virus; remark: listed apart in the source
[13] = test system: MARV-ZsG; assay type: cell-based, Marburg virus
[14] = test system: henipavirus (NiV, HeV); assay type: cell-based, Nipah virus, Hendra virus
[15] = test system: reporter EBOVs; assay type: cell-based, Ebola virus
[16] = test system: NiV and EBOV; assay type: cell-based, Nipah virus, Ebola virus
[17] = test system: NiV (Malaysian genotype); experiment: microbe, parasite or virus in culture; assay type: cell-based, Nipah virus
[18] = test system: HeV; experiment: microbe, parasite or virus in culture; assay type: cell-based, Hendra virus
[19] = test system: HeLa cells; conditions: human
[20] = test system: Huh7 cells; conditions: human
[21] = test system: SK-N-MC cells; conditions: human
[22] = test system: NCI-H358 cells; conditions: human
[23] = test system: NCI-H358 cells
[24] = Henipavirus nipahense, SAEC, in Homo sapiens

Question: With `NC(=O)c1nc(F)c[nH]c1=O` [Favipiravir] as the compound, how does the “Decrease of EBOV infectious yield” value [1] read?
Answer: 4 logTCID50/mL

Question: Which EC50 [2] does the source give for “2′-monofluoro-4′-azidocytidine [2′F-4′N3-C]” here?
Answer: 160 nM

Question: And the EC50 [3]?
Answer: 270 nM

Question: What about the EC50 [4] of the same compound?
Answer: 280 nM

Question: What about the EC50 [5] of the same compound?
Answer: 7.79 µM

Question: What about the EC50 [6] of the same compound?
Answer: 3850 nM

Question: And the “Inhibition of FFU formation” value [7]?
Answer: did not detect significant inhibition

Question: And the EC50 [8]?
Answer: ~10 µM

Question: And the “Reduction of infectious SUDV yield” value [9]?
Answer: approximately 1.5 orders of magnitude

Question: What about the EC50 [10] of the same compound?
Answer: > 50 µM

Question: What about the “Effect on GFP expression” value [11] of the same compound?
Answer: completely abolished

Question: And the “Effect on CPE” value [12]?
Answer: completely abolished

Question: What about the EC50 [13] of the same compound?
Answer: > 50 µM

Question: What about the “Inhibition of MARV infection by FFU assay” value [13] of the same compound?
Answer: did not show any significant inhibition

Question: What about the “Reduction of infectious henipavirus yields” value [14] of the same compound?
Answer: 4–5 orders of magnitude

Question: And the “Antiviral activity against reporter EBOVs in Huh7 cells” value [15]?
Answer: significantly decreased antiviral activity

Question: Which “Antiviral activity against NiV and EBOV” value [16] does the source give for `[N-]=[N+]=N[C@]1(CO)O[C@@H](n2ccc(N)nc2=O)[C@@H](O)[C@@H]1O` [RO-9187, 2′-deoxy-2′-β-hydroxy-4′-azidocytidine] here?
Answer: little to no antiviral activity

Question: Which “Antiviral activity against NiV and EBOV” value [16] does the source give for `[N-]=[N+]=N[C@]1(CO)O[C@@H](n2ccc(N)nc2=O)[C@@H](F)[C@@H]1O` [RO-0622, 2′-deoxy-2′-β-fluoro-4′-azidocytidine] here?
Answer: little to no antiviral activity

Question: Which results are given for `[N-]=[N+]=N[C@]1(CO)O[C@@H](n2ccc(N)nc2=O)[C@H](O)[C@@H]1O` [R1479, 4′-azidocytidine]?
Answer: SI (selective index) [17]: 2.9 ± 0.95 [>34]; EC50 ([17]; Henipavirus nipahense, NCI-H358): 2900 nM; SI (selective index) [18]: 2.1 ± 0.57 [>47]; EC50 ([18]; Henipavirus hendraense, NCI-H358): 2100 nM; SI (selective index) [2]: 3.2 ± 0.50 [>32]; EC50 ([2]; Human respirovirus 3, NCI-H358): 3200 nM; SI (selective index) [3]: 1.9 ± 0.12 [>52]; SI (selective index) [4]: 3.3 ± 0.39 [>30]; EC50 ([4]; human respiratory syncytial virus, NCI-H358): 3300 nM; EC50 [5]: 2.6 µM; SI (selective index) [6]: 2.1 ± 0.07 [>47]; EC50 ([6]; Zaire ebolavirus, NCI-H358): 2100 nM; EC50 [7]: 2100 nM; Inhibition of FFU formation [7]: dose-dependent inhibition; Reduction of infectious SUDV titers ([9]; at 25 μM): > 4 orders of magnitude; EC50 ([10]; Rift Valley fever virus, NCI-H358): > 50 µM; EC50 [11, 24]: > 50 µM; EC50 [12, 24]: > 50 µM; Inhibition of MARV infection by FFU assay [13]: did not show any significant inhibition; Antiviral activity against reporter EBOVs in Huh7 cells [15]: significantly decreased antiviral activity; R1479-TP level (intracellular triphosphate) [19]: 136 ± 21 pmol/million cells; R1479-TP level (intracellular triphosphate) [20]: 18 ± 0.6 pmol/million cells; R1479-TP level (intracellular triphosphate) [21]: 42 ± 10 pmol/million cells; R1479-TP level (intracellular triphosphate) [22]: 391 ± 72 pmol/million cells; Cytotoxicity (cell viability) [23]: mild cytotoxicity
